In article PMC8305076, “Comprehensive Evaluation of Biological Effects of Pentathiepins on Various Human Cancer Cell Lines and Insights into Their Mode of Action” (International Journal of Molecular Sciences, 2021):

Key:
[1] = test system: HAP-1, HAP-1.KO.GPx1, A2780, and Siso; test: apoptosis (summary); format: cell-based, human; design: key: no impact (0); weak impact (+); strong impact (++); settings: summary grade
Method: As reported in our earlier publication, a representative pentathiepin was capable of inducing apoptosis in cancer cell lines. Here, we tested compounds 1–6 for their ability to trigger this particular modality of cell death in a subset of four cell lines: HAP-1, HAP-1.KO.GPx1, A2780, and Siso. A flow cytometric assay was performed, allowing us to discriminate between viable, early, and late apoptotic cells (representative dot plots can be found in Figure S47). FITC-labeled annexin V was used to assess the externalization of phosphatidyl serine as a hallmark of early apoptosis induction. The addition of propidium iodide (PI) enabled the detection of late apoptotic cells as it only permeates porous cell membranes and exerts fluorescence once bound to double-stranded DNA.
The annexin V-FITC/PI assay, which discriminates between viable, early, and late apoptotic cells within a sample population, was performed according to the manufacturer’s instructions (Miltenyi Biotec, Teterow, Germany). Briefly, 125,000 cells were seeded in 2 mL per well of a 6-well plate, allowed to adhere overnight, and subsequently treated with the respective pentathiepin (IC90, see Table S4) diluted in 3 mL of medium. After incubation periods of 6, 24, or 48 h, the cells were harvested, washed with the provided binding buffer, and stained with the annexin V-FITC reagent for 20 min at room temperature (RT) in the dark. After another washing step, the pellet was resuspended, and PI was added immediately before flow cytometric measurement at λEx/Em = 488/525 ± 50 nm for FITC and λEx/Em = 488/655–730 nm for PI with the MACSquant Analyzer 10 (Miltenyi Biotec, Teterow, Germany).

pBR322 plasmid DNA = test: plasmid cleavage assay; format: biochemical; design: key to DNA cleavage: no impact (0); weak impact (+); strong impact (++); settings: for DNA cleavage: summary grade; for linearized plasmid (double-strand breaks) / open circular DNA (single-strand breaks): pH 7.1, 20 h, 37 °C
From the text: We pursued two different strategies to assess the potential of the pentathiepins to damage DNA: a simple plasmid cleavage assay and the cellular Comet assay. The former is a straightforward method to investigate whether a test compound can cleave DNA in vitro, and if so, whether single and/or double strand breaks are created, while the latter is an ex vivo assay that measures DNA fragmentation in single cells. In the plasmid cleavage assay, a single strand break would relax the supercoiled plasmid (scDNA) and lead to the detection of open circular DNA (ocDNA), whereas a double-strand break would linearize the plasmid (linDNA). An agarose gel electrophoresis enables the discrimination of the distinct plasmid conformations due to their specific electrophoretic mobilities (Figure 11a).
This assay was used to assess the cleaving ability of the pentathiepins in a cell-free setting and on the basis of procedures described in [54]. Plasmids occur in three different conformations with distinct electrophoretic mobilities that can finally be separated visualized via agarose gel electrophoresis. For each condition, 0.3 µg of pBR322 plasmid DNA was incubated with either the pentathiepin or a corresponding amount of the solvent acetonitrile. Incubations were performed in sodium phosphate buffer (50 mM) with or without GSH for 20 h at 37 °C in a water bath. Afterwards, the samples were separated by using an agarose gel (1%) run at 80 V for 2 h. Resulting bands were stained with GelRed® (Sigma-Aldrich, Taufkirchen, Germany),) and imaged and quantified via Gel-Doc EZ Imager and Image Lab (Bio-Rad, Feldkirchen, Germany), respectively. To assess the cleavage ability of the pentathiepins, we incubated the plasmid with either 5 or 25 µM of compound at a fixed concentration of GSH (2 mM). In another experiment, the amount of GSH varied between 1 µM and 10 mM, while the pentathiepin concentration was 5 µM. In contrast to the aforementioned settings where a buffer pH of 7.1 was applied, in a third attempt, the influence of different pH on the cleavage outcome was analyzed by adjusting the buffer pH to 5.1, 6.1, or 8.1 while using fixed concentrations of both test compound and GSH. Another attempt to gain insights into the cleaving mechanism was made by adding either catalase, superoxide dismutase (100 µg/mL each), or both to 5 µM pentathiepin with 2 mM GSH.

| SMILES | Apoptosis [1] | influence of buffer pH on plasmid cleavage (pBR322 plasmid DNA; 5 µM, 2 mM GSH, pH 5.1 to 8.1) | DNA cleavage (pBR322 plasmid DNA) | linearized plasmid (double-strand breaks) (pBR322 plasmid DNA; 25 µM, 2 mM GSH) | fraction of damaged DNA (pBR322 plasmid DNA; 5 µM, 2 mM GSH, no enzyme added (CAT/SOD experiment)) | open circular DNA (pBR322 plasmid DNA; 5 µM, 2 mM GSH, pH 5.1) | open circular DNA (pBR322 plasmid DNA; 5 µM, 2 mM GSH, pH 6.1) | open circular DNA (pBR322 plasmid DNA; 5 µM, 2 mM GSH, pH 8.1) | amount of broken plasmid (pBR322 plasmid DNA; 5 µM, 2 mM GSH, plus 100 µg/mL CAT) | amount of broken plasmid (pBR322 plasmid DNA; 5 µM, 2 mM GSH, plus 100 µg/mL SOD) | amount of broken plasmid (pBR322 plasmid DNA; 5 µM, 2 mM GSH, plus CAT and SOD) | open circular DNA (single-strand breaks) (pBR322 plasmid DNA; 25 µM, 2 mM GSH) | open circular DNA (single-strand breaks) (pBR322 plasmid DNA; 5 µM, 2 mM GSH) |
| --- | --- | --- | --- | --- | --- | --- | --- | --- | --- | --- | --- | --- | --- |
| CCOc1c2c(c3cnc4[nH]c(-c5ccc(OC)cc5)cc4n13)SSSSS2 [Compound 1, 11-Ethoxy-2-(4-methoxyphenyl)-3H-[1,2,3,4,5]pentathiepino[6′,7′:3,4]pyrrolo[1,2-a]pyrrolo[2,3-e]pyrazine] | + | a trend favoring lower pH for higher cleavage effects was observed but was not proven to be statistically significant | + |  |  |  |  |  |  |  |  |  |  |
| CCOc1c2c(c3ccc(C(=O)N4CCCCC4)cn13)SSSSS2 [Compound 2, (6-Ethoxy-[1,2,3,4,5]pentathiepino[6,7-a]indolizin-9-yl)(piperidinyl)methanone] | + |  | ++ | about 4% |  |  |  |  |  |  |  |  |  |
| CCOc1c2c(c3ccc(C(=O)N4CCOCC4)cn13)SSSSS2 [Compound 3, (6-Ethoxy-[1,2,3,4,5]pentathiepino[6,7-a]indolizin-9-yl)(morpholino)methanone] | ++ |  | ++ | about 4% | about 43% | 45% | 49% | 28% | 19% | 29% | 19% | about 75% |  |
| CCOc1c2c(c3ccc(C(=O)N(CC)CC)cn13)SSSSS2 [Compound 4, 6-Ethoxy-N,N’-diethyl-[1,2,3,4,5]pentathiepino[6,7-a]indolizine-9-carboxamide] | + |  | ++ | about 4% |  |  |  |  |  |  |  | about 75% | roughly 55% |
| CCOc1c2c(c3ccc(C(=O)N4CCN(C(=O)c5ccc(F)cc5)CC4)cn13)SSSSS2 [Compound 5, (6-Ethoxy-[1,2,3,4,5]pentathiepino[6,7-a]indolizin-9-yl)(4-(4-fluorobenzoyl)piperazinyl)methanone] | ++ |  | ++ | about 4% |  |  |  |  |  |  |  | about 75% | roughly 55% |
| CCOc1c2c(c3ccc(C(=O)N4CCN(S(=O)(=O)c5ccc(C)cc5)CC4)cn13)SSSSS2 [Compound 6, (6-Ethoxy-[1,2,3,4,5]pentathiepino[6,7-a]indolizin-9-yl)(4-tosylpiperazinyl)methanone] | + |  | + |  |  |  |  |  |  |  |  |  |  |
